Test results reported in patent US20090156666A1, “NOVEL COMPOSITIONS AND USE THEREOF FOR THE TREATMENT, CO-TREATMENT OR PREVENTION OF INFLAMMATORY DISORDERS” (priority 2007, published 2009).

Columns and labels:
[1] = tested on: nitric oxide (NO) synthesis in RAW264.7 cells; assay: Inhibition of nitric oxide synthesis in LPS-stimulated RAW264.7 macrophages (Griess reaction); format: cell-based, murine; details: single substances
human aggrecan = assay: Gene expression (mRNA, RT-PCR) in normal human chondrocytes: aggrecan; format: cell-based; details: 50 μmol/L; 4 hrs; % of unstimulated cells (100%)
Experimental: (§1) The effect of a MA/HO (1:3 w/w) mixture in combination with glucosamine was tested on the expression of human aggrecan, collagen I, collagen II, or chondrocyte transcription factors (SOX-6, -9) in vitro in normal human chondrocytes (derived from knee) (CC-2550; Cambrex, respectively). A control experiment without the compounds was done concomitantly to compare the expression of these genes (percentage expression of gene in controls was set to 100%). […] The level of mRNA was determined by RT-PCR (Richard et al. Mol. Nutr. Food Res. 49, 431-442, 2005) and expressed relative to the level observed in cells cultured without the substances. The given values indicate the level of gene expression (in % of unstimulated cells [set at 100%] for anabolic and anti-catabolic genes; in % of IL1β-treated cells [set at 100%], for catabolic genes). […] Yet, when combined the observed increase in gene expression exceeded the expected one reflecting synergism.

collagen I = assay: Gene expression (mRNA, RT-PCR) in normal human chondrocytes: collagen I; format: cell-based; details: 50 μmol/L; 4 hrs; % of unstimulated cells (100%)
Experimental: as §1

collagen II = assay: Gene expression (mRNA, RT-PCR) in normal human chondrocytes: collagen II; format: cell-based; details: 50 μmol/L; 4 hrs; % of unstimulated cells (100%)
Experimental: as §1

TMP-I = assay: Gene expression (mRNA, RT-PCR) in normal human chondrocytes: TMP-I (anti-catabolic); format: cell-based; details: 50 μmol/L; 4 hrs; % of unstimulated cells (100%)
Text: as §1, with “Catabolic events are controlled by the expression of genes, e.g. those genes that encode matrix metalloproteinases (MMPs) that eventually break down collagen or proteoglycans (ADAMTS-4, -5). Of the MMPs, MMP-1 and MMP-3 have a major role in breaking down the ECM in cartilage degradation. Some genes including TIMPS-1 (tissue-inhibitor of MMPs) have anti-catabolic effects and thus contribute to prevention of tissue erosion. The effect” for “The effect”

MMP-9 = assay: Gene expression (mRNA, RT-PCR) in normal human chondrocytes: MMP-9 (catabolic); format: cell-based; details: 50 μmol/L; stim. 4 hrs; % of IL1β-treated cells (100%)
Text: as §1, with “Catabolic events are controlled by the expression of genes, e.g. those genes that encode matrix metalloproteinases (MMPs) that eventually break down collagen or proteoglycans (ADAMTS-4, -5). Of the MMPs, MMP-1 and MMP-3 have a major role in breaking down the ECM in cartilage degradation. Some genes including TIMPS-1 (tissue-inhibitor of MMPs) have anti-catabolic effects and thus contribute to prevention of tissue erosion. The effect” for “The effect”

ADAMTS-4 = assay: Gene expression (mRNA, RT-PCR) in normal human chondrocytes: ADAMTS-4 (catabolic); format: cell-based; details: 50 μmol/L; unstim. 4 d; % of control (100%)
Text: Catabolic events are controlled by the expression of genes, e.g. those genes that encode matrix metalloproteinases (MMPs) that eventually break down collagen or proteoglycans (ADAMTS-4, -5). Of the MMPs, MMP-1 and MMP-3 have a major role in breaking down the ECM in cartilage degradation. Some genes including TIMPS-1 (tissue-inhibitor of MMPs) have anti-catabolic effects and thus contribute to prevention of tissue erosion. The effect of a MA/HO (1:3 w/w) mixture in combination with glucosamine was tested on the expression of human aggrecan, collagen I, collagen II, or chondrocyte transcription factors (SOX-6, -9) in vitro in normal human chondrocytes (derived from knee) (CC-2550; Cambrex, respectively). A control experiment without the compounds was done concomitantly to compare the expression of these genes (percentage expression of gene in controls was set to 100%). […] The level of mRNA was determined by RT-PCR (Richard et al. Mol. Nutr. Food Res. 49, 431-442, 2005) and expressed relative to the level observed in cells cultured without the substances. […] […] Yet, when combined the observed increase in gene expression exceeded the expected one reflecting synergism.

SMILES: N[C@H]1C(O)O[C@H](CO)[C@@H](O)[C@@H]1O.O=S(=O)(O)O (some centres unmarked) [Glucosamine sulfate, glucosamine sulfate]
- anti-inflammatory activity (in words) ([1]; LPS-stimulated, nitric oxide): marginal anti-inflammatory
- IC50 ([1]; Mus musculus, LPS 1 μg/ml, 24 hours): > 100 µM
- Aggrecan gene expression level (human aggrecan): 81%
- Collagen 1 gene expression level (collagen I): 121%
- Collagen II gene expression level (collagen II): 154%
- TMP-I gene expression level (TMP-I): 110%
- MMP-9 gene expression level (MMP-9): 114%
- ADAMTS-4 gene expression level (ADAMTS-4): 101%
